Data published in patent publication US11931424B2, “Combination MCL-1 inhibitors with anti-body drug conjugates” (Gilead Sciences, Inc., priority 2021, dated 2024).

Tested on: panel of breast cancer cell lines
Test: Compound A with targeted agents and chemotherapies, 72-hour in vitro proliferation assays
Type: cell-based
Settings: compound A × partner, 72-hour proliferation

CCOc1cc2ncc(C#N)c(Nc3ccc(OCc4ccccn4)c(Cl)c3)c2cc1NC(=O)/C=C/CN(C)C [Neratinib]
Best CI (AU565 cell line): 0.40 | Bliss Volume (AU565 cell line): 18.09 | HSA volume (AU565 cell line): 11.74 | Loewe Volume (AU565 cell line): 10.72 | Synergy Score (AU565 cell line): 19.43 | Best CI (BT-20 cell line): 0.05 | Bliss Volume (BT-20 cell line): 38.29 | HSA volume (BT-20 cell line): 28.06 | Loewe Volume (BT-20 cell line): 28.33 | Synergy Score (BT-20 cell line): 58.64 | Best CI (CAL-51 cell line): 0.29 | Bliss Volume (CAL-51 cell line): 6.99 | HSA volume (CAL-51 cell line): 4.62 | Loewe Volume (CAL-51 cell line): 6.71 | Synergy Score (CAL-51 cell line): 14.86 | Best CI (CAL-85-1 cell line): 0.13 | Bliss Volume (CAL-85-1 cell line): 22.07 | HSA volume (CAL-85-1 cell line): 18.05 | Loewe Volume (CAL-85-1 cell line): 16.51 | Synergy Score (CAL-85-1 cell line): 28.31 | Best CI (CAL-120 cell line): 0.82 | Bliss Volume (CAL-120 cell line): 4.43 | HSA volume (CAL-120 cell line): 4.29 | Loewe Volume (CAL-120 cell line): 3.99 | Synergy Score (CAL-120 cell line): 11.20 | Best CI (CAL-148 cell line): 0.21 | Bliss Volume (CAL-148 cell line): 18.81 | HSA volume (CAL-148 cell line): 13.97 | Loewe Volume (CAL-148 cell line): 17.68 | Synergy Score (CAL-148 cell line): 29.60 | Best CI (CAMA-1 cell line): 0.40 | Bliss Volume (CAMA-1 cell line): 26.19 | HSA volume (CAMA-1 cell line): 5.28 | Loewe Volume (CAMA-1 cell line): 3.50 | Synergy Score (CAMA-1 cell line): 6.88 | Best CI (DU-4475 cell line): 0.43 | Bliss Volume (DU-4475 cell line): 10.55 | HSA volume (DU-4475 cell line): 1.06 | Loewe Volume (DU-4475 cell line): 0.39 | Synergy Score (DU-4475 cell line): 2.06 | Best CI (EVSA-T cell line): 0.51 | Bliss Volume (EVSA-T cell line): 2.50 | HSA volume (EVSA-T cell line): 1.44 | Loewe Volume (EVSA-T cell line): 1.31 | Synergy Score (EVSA-T cell line): 1.92 | Best CI (HCC38): 1.06 | Bliss Volume (HCC38): 17.98 | HSA volume (HCC38): 8.02 | Loewe Volume (HCC38): 11.04 | Synergy Score (HCC38): 11.55 | Best CI (HCC70): 0.09 | Bliss Volume (HCC70): 36.07 | HSA volume (HCC70): 21.70 | Loewe Volume (HCC70): 21.51 | Synergy Score (HCC70): 42.47 | Best CI (HCC1143): 0.47 | Bliss Volume (HCC1143): 14.84 | HSA volume (HCC1143): 7.69 | Loewe Volume (HCC1143): 8.83 | Synergy Score (HCC1143): 12.39 | Best CI (HCC1569): 0.76 | Bliss Volume (HCC1569): 17.69 | HSA volume (HCC1569): 11.68 | Loewe Volume (HCC1569): 14.89 | Synergy Score (HCC1569): 23.33 | Best CI (HCC1806): 0.15 | Bliss Volume (HCC1806): 25.34 | HSA volume (HCC1806): 19.39 | Loewe Volume (HCC1806): 21.61 | Synergy Score (HCC1806): 37.41 | Best CI (HCC1937): 0.84 | Bliss Volume (HCC1937): 13.93 | HSA volume (HCC1937): 5.77 | Loewe Volume (HCC1937): 10.37 | Synergy Score (HCC1937): 13.10 | Best CI (HCC1954): 0.06 | Bliss Volume (HCC1954): 37.73 | HSA volume (HCC1954): 19.30 | Loewe Volume (HCC1954): 19.31 | Synergy Score (HCC1954): 38.93 | Best CI (HCC2218): 0.05 | Bliss Volume (HCC2218): 30.06 | HSA volume (HCC2218): 10.84 | Loewe Volume (HCC2218): 8.50 | Synergy Score (HCC2218): 20.85 | Best CI (HDQ-P1): 0.57 | Bliss Volume (HDQ-P1): 10.17 | HSA volume (HDQ-P1): 9.28 | Loewe Volume (HDQ-P1): 9.93 | Synergy Score (HDQ-P1): 17.02 | Best CI (HMC-1-8): 0.24 | Bliss Volume (HMC-1-8): 19.74 | HSA volume (HMC-1-8): 14.99 | Loewe Volume (HMC-1-8): 15.17 | Synergy Score (HMC-1-8): 30.76 | Best CI (JIMT-1): 0.18 | Bliss Volume (JIMT-1): 10.52 | HSA volume (JIMT-1): 11.00 | Loewe Volume (JIMT-1): 11.11 | Synergy Score (JIMT-1): 17.62

O=C(c1cc(Cc2n[nH]c(=O)c3ccccc23)ccc1F)N1CCN(C(=O)C2CC2)CC1 [Olaparib]
Best CI (AU565 cell line): 0.75 | Bliss Volume (AU565 cell line): 2.11 | HSA volume (AU565 cell line): −1.92 | Loewe Volume (AU565 cell line): 0.98 | Synergy Score (AU565 cell line): 2.27 | Best CI (BT-20 cell line): 0.88 | Bliss Volume (BT-20 cell line): 0.80 | HSA volume (BT-20 cell line): 0.38 | Loewe Volume (BT-20 cell line): 0.63 | Synergy Score (BT-20 cell line): 4.78 | Best CI (CAL-51 cell line): 0.55 | Bliss Volume (CAL-51 cell line): 1.50 | HSA volume (CAL-51 cell line): 1.03 | Loewe Volume (CAL-51 cell line): 2.21 | Synergy Score (CAL-51 cell line): 1.89 | Best CI (CAL-85-1 cell line): 0.67 | Bliss Volume (CAL-85-1 cell line): 4.52 | HSA volume (CAL-85-1 cell line): 5.66 | Loewe Volume (CAL-85-1 cell line): 6.67 | Synergy Score (CAL-85-1 cell line): 5.10 | Best CI (CAL-120 cell line): 0.85 | Bliss Volume (CAL-120 cell line): 3.31 | HSA volume (CAL-120 cell line): −3.93 | Loewe Volume (CAL-120 cell line): −3.49 | Synergy Score (CAL-120 cell line): 0.11 | Best CI (CAL-148 cell line): 0.27 | Bliss Volume (CAL-148 cell line): 3.34 | HSA volume (CAL-148 cell line): 5.39 | Loewe Volume (CAL-148 cell line): 5.40 | Synergy Score (CAL-148 cell line): 9.33 | Best CI (CAMA-1 cell line): 1.12 | Bliss Volume (CAMA-1 cell line): 5.62 | HSA volume (CAMA-1 cell line): 2.59 | Loewe Volume (CAMA-1 cell line): 3.95 | Synergy Score (CAMA-1 cell line): 4.78 | Best CI (DU-4475 cell line): 1.00 | Bliss Volume (DU-4475 cell line): 7.40 | HSA volume (DU-4475 cell line): 5.68 | Loewe Volume (DU-4475 cell line): 5.80 | Synergy Score (DU-4475 cell line): 4.61 | Best CI (EVSA-T cell line): 1.17 | Bliss Volume (EVSA-T cell line): 6.05 | HSA volume (EVSA-T cell line): 3.16 | Loewe Volume (EVSA-T cell line): 3.21 | Synergy Score (EVSA-T cell line): 4.47 | Best CI (HCC38): 0.72 | Bliss Volume (HCC38): 6.78 | HSA volume (HCC38): 7.48 | Loewe Volume (HCC38): 7.01 | Synergy Score (HCC38): 8.69 | Best CI (HCC70): 0.94 | Bliss Volume (HCC70): 6.93 | HSA volume (HCC70): 6.07 | Loewe Volume (HCC70): 6.54 | Synergy Score (HCC70): 12.18 | Best CI (HCC1143): 0.24 | Bliss Volume (HCC1143): 4.87 | HSA volume (HCC1143): 3.84 | Loewe Volume (HCC1143): 3.62 | Synergy Score (HCC1143): 4.20 | Best CI (HCC1569): 0.84 | Bliss Volume (HCC1569): 7.47 | HSA volume (HCC1569): 5.26 | Loewe Volume (HCC1569): 8.00 | Synergy Score (HCC1569): 4.98 | Best CI (HCC1806): 0.21 | Bliss Volume (HCC1806): 7.25 | HSA volume (HCC1806): 8.26 | Loewe Volume (HCC1806): 8.49 | Synergy Score (HCC1806): 7.73 | Best CI (HCC1937): 0.63 | Bliss Volume (HCC1937): 2.27 | HSA volume (HCC1937): −1.83 | Loewe Volume (HCC1937): 3.06 | Synergy Score (HCC1937): 1.77 | Best CI (HCC1954): 0.92 | Bliss Volume (HCC1954): 1.68 | HSA volume (HCC1954): 0.48 | Loewe Volume (HCC1954): 1.64 | Synergy Score (HCC1954): 4.49 | Best CI (HCC2218): 0.88 | Bliss Volume (HCC2218): −1.34 | HSA volume (HCC2218): −1.12 | Loewe Volume (HCC2218): −1.71 | Synergy Score (HCC2218): 2.66 | Best CI (HDQ-P1): 0.51 | Bliss Volume (HDQ-P1): 3.81 | HSA volume (HDQ-P1): −0.38 | Loewe Volume (HDQ-P1): 3.65 | Synergy Score (HDQ-P1): 1.22 | Best CI (HMC-1-8): 0.78 | Bliss Volume (HMC-1-8): 10.54 | HSA volume (HMC-1-8): 5.78 | Loewe Volume (HMC-1-8): 6.22 | Synergy Score (HMC-1-8): 10.86 | Best CI (JIMT-1): 0.59 | Bliss Volume (JIMT-1): −1.42 | HSA volume (JIMT-1): −0.34 | Loewe Volume (JIMT-1): −1.35 | Synergy Score (JIMT-1): 0.61 | HSA volume (KPL-1): 1.49
